Test results published in US10308631B2, “Selective anti-cancer compounds” (NATIONAL UNIVERSITY OF SINGAPORE, priority 2015, dated 2019).

Legend:
[1] = Aqueous solubility; type: physicochemical; settings: compared with Compound 1
[2] = test system: isogenic non-transformed (normal) BJ cells; experiment: PI staining and FACS analysis, sub-G1 cell death; type: cell-based, human; settings: 48 h
Experimental: FIG. 5A is a histogram showing the ability of Compound 1 (a131) and its derivatives Compound 2 (a156), Compound 16 (b5), Compound 17 (b9), all in Group 1; Compound 29 (a219), Compound 13 (b12), Compound 11 (b15), Compound 12 (b16), Compound 25 (a166), all in Group 2; and Compound 3 (a159) from Group 3, to induce cancer selective cell death. Isogenic non-transformed (normal) and oncogene-transformed BJ cells were treated with each compound for 48 h and cells were stained with propidium iodide (PI) and subjected to FACS analysis. The percentage of cells in sub-G1 phase is indicative of the extent of cell death. […] In contrast, the ability of the compounds in Groups 2 and 3 to induce cancer selective cell death was markedly compromised (or reduced).
The Compounds 25 (a166) and 3 (a159) were selected from Group 2 and Group 3, respectively. Isogenic non-transformed normal and oncogene-transformed BJ cells were treated with or without 0.3 μM or 0.6 μM Compound 3 (a159) alone or together with 1.25 μM Compound 25 (a166) for 48 h. Cells were stained with propidium iodide (PI) and subjected to FACS analysis.
Isogenic non-transformed and oncogene-transformed human fibroblast BJ cell lines were cultured in DMEM supplemented with 10% FBS. The cells were treated with Compound 1 (2.5 μM, DMSO). 48 h after treatment, the cells were fixed with ethanol at −30° C. overnight and stained with 20 μg/mL propidium iodide (PI) and 10 μg/mL RNase A for 30 min. These cells were then subjected to flow cytometry (FACS) analysis using MACSQuant (Miltenyi Biotec) to count the percentage of apoptotic cells in sub-G1 peak.
The above procedure was repeated for Group 1 Compounds 2, 16 and 17, Group 2 Compounds 29, 13, 11, 12 and 25 at a concentration of 10 μM, and Group 3 Compound 3 at a concentration of 5 μM.
Isogenic non-transformed normal and oncogene-transformed BJ cells were cultured as in Biology Example 3. The cells were treated with a combination of Compound 3 (Group 3, at a concentration of 0.3 μM or 0.6 μM), and Compound 25 (Group 2, at a concentration of 1.25 μM) for 48 hours. Controls using DMSO, Compound 3 and Compound 25 alone (at the concentrations mentioned above) were also performed.

[3] = test system: LC3 (LC3-II/LC3-I) in HeLa cells; experiment: Immunoblot analysis of LC3 in HeLa cells; type: cell-based, human; settings: 0.625-10 μM, 6 h
Experimental: FIG. 1 is a diagrammatic representation of an immunoblot analysis showing the dual inhibition of the autophagic process and mitotic progression by Compound 1 (a131). HeLa cells were treated with the indicated μM concentration of Compound 1 (a131) or chloroquine for 6 h. Cells were harvested and total lysates were analysed by detecting the mitotic marker phospho-histone H3 at serine 10 (pH3 (Ser10)) and the autophagosome marker LC3. The band intensity ratios of LC3-II/LC3-I as compared to DMSO control (lane 1, 0 μM chloroquine, and lane 7, 0 μM a131) are indicated (Ratio). Antibodies raised against β-actin were used as an internal loading control.
The ability of Compound 1 to inhibit lysosome function was examined using immunoblotting. HeLa cervical cancer cells were cultured in Dulbecco's modified Eagle's medium (DMEM) supplemented with 10% Fetal Bovine Serum (FBS, Thermo Scientific). […]
Defects in lysosome function and inhibition of autophagy can be measured by accumulation of LC3-phosphatidylethanolamine conjugated non-soluble form (LC3-II), which are converted from soluble LC3-I. Thus, antibodies raised against LC3 (Cell Signaling, Cat#4108) were used to determine lysosomal function and integrity. […] The inhibitory ability of Compound 1 was also quantitatively compared to CQ.

[4] = test system: caspase-3/7 activity in oncogene-transformed human fibroblast BJ cells; experiment: Caspase-3/7 Glo assay; type: cell-based; settings: 2.5 and 5 μM, 48 h
Experimental: FIGS. 5B, C provide a representation of an immunoblot analysis to examine the PARP or caspase-3 cleavage (B) and a histogram showing Caspase-3/7 activities, plotted as fold induction compared to DMSO-treated cells (C). BJ normal and transformed cells were treated with Compound 1 (a131) for 48 h. Cells were harvested and total lysates were analysed by detecting cleaved PARP or caspase-3 or caspase-3/7 activities as markers for apoptotic induction. […] Student's t-test was performed to determine the statistical significance (**=p<0.001, ***=p<0.0001, n.s.=no significance).
Whether Compound 1 (a131)-induced cancer cell-lethality was mediated by apoptosis or non-apoptotic programmed cell death was determined. For this purpose, isogenic non-transformed and oncogene-transformed human fibroblast BJ cell lines were cultured in DMEM supplemented with 10% FBS. The cells were treated with Compound 1 (2.5 μM and 5 μM, DMSO). 48 h after treatment, total cell lysates were prepared for immunoblot analysis using antibodies against cleaved PARP and cleaved caspase-3, well-known markers for apoptosis. In addition, a fraction of total cell lysates was also subjected to Caspase-3/7 Glo (Promega) assay to measure the combined activity of caspase 3/7. This was determined using caspase-Glo 3/7 Assay Kit (Promega) and its activity was normalized to a number of viable cells as determined by MTT assay.

Question: Which aqueous solubility [1] does the source give for `CN1CCN(CC(=O)n2cc(/C(C#N)=C/c3cccc4cnccc34)c3ccccc32)CC1` [Compound 16, (Z)-3-(isoquinolin-5-yl)-2-(1-(2-(4-methylpiperazin-1-yl)acetyl)-1H-indol-3-yl)acrylonitrile] here?
Answer: The aqueous solubility was “improved aqueous solubility”.

Question: For `N#C/C(=C\c1cccc2ncccc12)c1c[nH]c2ccccc12` [Compound 3, (Z)-2-(1H-indol-3-yl)-3-(quinolin-5-yl)acrylonitrile], which “cell death (population of cells in sub-G1)” value ([2]; normal BJ cells (FIG. 5A)) is on record?
Answer: Its value is “significantly induced cell death”.

Question: And the cell death ([2]; Compound 3 0.3 or 0.6 μM, Compound 25 1.25 μM, alone or in combination)?
Answer: Its cell death is “did not lead to a significant increase in cell death”.

Question: For `N#C/C(=C\c1cccc2cnccc12)c1c[nH]c2ccccc12` [Compound 1, (Z)-2-(1H-indol-3-yl)-3-(isoquinolin-5-yl)acrylonitrile], which “levels of LC3-II” value [3] is on record?
Answer: Its value is “markedly increased the levels of LC3-II”.

Question: And the caspase-3/7 activity [4]?
Answer: Its caspase-3/7 activity is “significant induction of caspase-3/7 activity”.
